Measurements published in US20110022129A1, “NANOPARTICLES FOR PHOTODYNAMIC THERAPY” (priority 2007, published 2011).
Converted amounts (≈) assume the structure as drawn.

Columns and labels:
physchem = conditions: aqueous with cosolvent or surfactant or cyclodextrin, kinetic from dmso stock
Excerpt: Nanoparticles were isolated as previously described, and the concentration of free β-carotene in the filtrate measured.

[1] = tested on: AB12, murine malignant pleural mesothelioma (MPM); assay: External-beam (980 nm infrared) nanophosphor-mediated photodynamic therapy of AB12 flank tumors in mice; type: in vivo, mouse (BALB/cJ); conditions: for total number of surviving animals: sixty day observation, survivors/group size
Method: Six to twelve week old, female BALB/cJ (AB12 tumor host) mice, obtained pathogen-free from Taconic Farms, were used for all of the experiments. Animals were kept in conventional conditions in micro-isolator cages in a laminar flow unit under ambient light with full access to food and water during experiments.
AB12, murine malignant pleural mesothelioma (MPM) was utilized for tumor inoculation. Cells were maintained in complete DMEM/F12 culture media in a 37° C. humidified 5% CO2 incubator.
Seventy balb/C mice were inoculated with 5×10^5 AB12, malignant mesothelioma cells via subcutaneous flank injection. The subsequent tumors were measured using digital calipers three times per week until the tumors reached ˜200-300 mm^3 at which time the mice were given their first treatment. Mice were divided into […]. The groups were as follows: i. Control, ii. Infrared light-Nanophosphor-Photosensitizer (IR-NP-PS), iii. IR-NP, iv. IR-PS, v. IR alone, vi. NP alone, and vii. PS alone. Groups ii, iii, and vi were administered intra-tumoral injections with 100 μl of 25 mg/ml nanophosphor suspension in saline at 72 and 48 h prior to only the first treatment. Groups ii, iv, and vii were administered weekly intra-peritoneal (i.p.) injections of 10 mg/kg Photofrin™, twenty-four hours before first treatment of each week.
For this procedure mice were anesthetized with i.p. ketamine and xylazine, 80 mg/kg and 12 mg/kg, respectively. A maximum dose of 1.0 W of 980 nm light (BW Tek) at the treatment surface was measured using an IR thermopile detector (Coherent, Inc) for a total dose of 28.3 J/cm^2. Pulsed light delivery method of 1 second ON, 2 seconds OFF for 1.5 hours was utilized to minimize damage of healthy tissue due to heat from the infrared light by allowing the tissue to dissipate the heat between delivery cycles. […] Over the course of the entire treatment program tumors were measured three times weekly and mice were monitored for signs of morbidity for 60 days or until tumors reached endpoint of 500 mm^3.

Row | solubility (physchem) [µg/mL] | Compound | tumor regression ([1]; over treatment program, in words) | total number of surviving animals [1]
1 | ~50 (≈ 93.1 µM) | CC1=C(/C=C/C(C)=C/C=C/C(C)=C/C=C/C=C(C)/C=C/C=C(C)/C=C/C2=C(C)CCCC2(C)C)C(C)(C)CCC1 [β-carotene] |  | 
2 |  | Photofrin [IR-PS] | No animals | 0/10
3 |  | Photofrin [PS alone] |  | 0/9
